Assay results published in article PMC12661054, “The CIP2A-TOPBP1 axis facilitates mitotic DNA repair via MiDAS and MMEJ” (Nature Communications, 2025).

Legend:
[1] = test system: HCT116-TOPBP1-mAID-Clover cells; test: TOPBP1 degron assay, HCT116-TOPBP1-mAID-Clover cells; type: cell-based, human
Description: Immunofluorescence microscopy
(§1) For detection of EdU incorporation in mitosis and the analysis of recruitment of TOPBP1, CIP2A, MUS81, ERCC1, TOPBP1-mAID-Clover, eGFP tagged SLX4 and eGFP tagged Polθ in RPE1 p53^-/- FRT/TR and DLD1 BRCA2^-/-cells, respectively, cells were grown on 13 mm 1.5 thickness coverslips and treated as described. Subsequently cells were simultaneously fixed and permeabilised in PTEMF buffer (20 mM PIPES pH 6.8, 10 mM EGTA, 0.2% Triton X-100, 1 mM MgCl2 and 4% formaldehyde) for 10 minutes at room temperature. For detection of micronuclei, cells were fixed in 250 mM HEPES pH 7.5, 0.1% Triton X-100, 4% PFA in PBS for 20 minutes at 4 °C.
(§2) Quantification was carried out using FIJI (ImageJ, RRID:SCR_003070) software, CellProfiler (Broad Institute), Harmony (Revvity) or using Aivia (Leica Microsystems). Images of mitotic cells were analysed in 3D with maximum Z projections used for representative images in the manuscript to assist with visualisation.For interphase cells 2D images were analysed.

RPE1 p53-/- FRT/TR cells = test: Micronuclei formation, RPE1 p53-/- FRT/TR cells; type: cell-based, human; details: 5 µM ART558, 18 h, with 400 nM aphidicolin, three independent experiments
Description: as §1
Coverslips were then incubated for 5 min in 1x PBS with three buffer changes followed by incubation with 0.5% Triton X-100/ PBS for 10 min at room temperature. Coverslips were then incubated for 5 minutes in 1x PBS with three buffer changes. […]
as §2

DLD1 BRCA2-/- cells = test: Proliferation (Incucyte), DLD1 BRCA2-/- cells; type: cell-based, human; details: 5 µM ART558 + siSLX4, compared to siCIP2A; three independent experiments
Description: For proliferation analysis of DLD1 BRCA2^-/- cells after treatment with siRNA as indicated, 72 h post-transfection of the first pulse of siRNA, 1500 cells were seeded per well in a PhenoPlate 96-well optically clear tissue culture plate (Revvity, 6055302). […] The following day the media was aspirated and replaced with 200 µl of RPMI 1640 medium containing standard antibiotics, 10% FBS and 2 mM L-glutatmine.
To analyse cellular proliferation of DLD1 BRCA2^-/- or SUM149PT BRCA1^-/-cells expressing a minimal SLX4 T1260 containing fragment, 1500 cells were seeded per well in a PhenoPlate 96-well optically clear tissue culture plate (Revvity, 6055302). […] The following day the medium was aspirated and replaced with 200 µl of RPMI 1640 medium containing standard antibiotics, 10% FBS and 2 mM L-glutatmine (DLD1 BRCA2^-/- SLX4 T1260 fragment cells or empty vector control expressing) or S Ham’s F-12 medium supplemented with 5% FBS, 10 μg/mL insulin, 0.5 μg/mL hydrocortisone and penicillin/streptomycin antibiotics for SUM149PT BRCA1^-/- (SLX4 T1260 fragment or empty vector control expressing) containing 1 µg/ml doxycycline.

RPE1 p53-/- cells = test: Immunofluorescence foci, RPE1 p53-/- cells; type: cell-based, human
Description: Immunofluorescence microscopy […] For detection of micronuclei, cells were fixed in 250 mM HEPES pH 7.5, 0.1% Triton X-100, 4% PFA in PBS for 20 minutes at 4 °C. Coverslips were then incubated for 5 min in 1x PBS with three buffer changes followed by incubation with 0.5% Triton X-100/ PBS for 10 min at room temperature. Coverslips were then incubated for 5 minutes in 1x PBS with three buffer changes. For EdU detection coverslips were transferred to a humidified chamber and incubated in EdU click it reaction buffer containing Alexafluor 488 azide for 1 h at room temperature followed by three 5 min washes in 1x PBS. Coverslips were then incubated in 5% FBS/PBS for 1 h followed by overnight incubation at 4 °C with primary antibody diluted in 5% FBS/PBS. Coverslips were then washed 3 × 5 min in 1x PBS followed by 1 h incubation at room temperature in 5% FBS/PBS containing secondary antibodies. Coverslips were incubated a further three times for 5 min in 1x PBS. Coverslips were then mounted on superfrost microscopy slides using Vectashield mounting medium with DAPI (Vector laboratories, […]). […] Cells were fixed in […] for 15 min at room temperature, followed by 3 × 5 min washes in 1xPBS. Coverslips were then incubated in 0.5% Triton-X/PBS for 10 min at room temperature, followed by a further 3 × 5 min 1xPBS washes. Coverslips were then incubated in blocking buffer (2% BSA, 0.05% Tween-20) for 1 h at room temperature, followed by incubation in respective primary antibodies overnight at 4 °C. Coverslips were then washed 3x for 5 min in 1x PBS followed by incubation for 1 h at room temperature in blocking buffer containing secondary antibodies. Coverslips were then washed 3x for 5 min in 1x PBS and mounted with Vectashield PLUS antifade mounting medium with DAPI (Vector laboratories, […]). Images were acquired using a Zeiss Axio Observer Z1 MarianasTM Microscope attached with a CSU-SoRa spinning disk unit using either a Photometrics Kinetix sCMOS camera built by Intelligent Imaging Innovations (3i) or a Zeiss Axio Observer Z1 MarianasTM Microscope attached with a CSUX1 spinning disk unit and Hamamatsu Flash 4 CMOS camera built by Intelligent Imaging Innovations (3i) or using an Opera Phenix Plus high content imaging system (Revvity). In each case 405, 488 and 640 laser lines were used in addition to DAPI, GFP/FITC, iRFP/CY5 emission filters. Quantification was carried out using FIJI (ImageJ, RRID:SCR_003070) software, CellProfiler (Broad Institute), Harmony (Revvity) or using […] Microsystems). Images of mitotic cells were analysed in 3D with maximum Z projections used for representative images in the manuscript to assist with visualisation.For interphase cells 2D images were analysed.

TOPBP1 BRCT 0-1-2 WT = biological target: T1, TOPBP1 BRCT 0-1-2 WT (Homo sapiens, UniProt Q92547); test: Fluorescence polarisation, TOPBP1 BRCT0-1-2 WT; type: binding; details: GST-tagged TOPBP1 fragment, peptide 100 nM, pH 7.5
T1 construct: transformed with pGEX-6P-1 TOPBP1(BRCT0-2 1-290) WT and K155E, K250E and K155E/K250E mutant variants; GST (N); made in house; host or cells: E. coli BL21(DE3)
Description: E.coli BL21(DE3) cells were transformed with pGEX-6P-1 TOPBP1(BRCT0-2 1-290) WT and K155E, K250E and K155E/K250E mutant variants for protein expression. Cell pellets were resuspended in lysis buffer containing 25 mM HEPES pH 7.5, 200 mM NaCl and 0.5 mM TCEP supplemented with 50U Turbo DNase, disrupted by sonication, and the resulting lysate clarified by centrifugation at 36,000 x g for 60 min at 4 °C. The supernatant was applied to a 5 ml HiTrap GST column, then washed with buffer containing 50 mM HEPES pH 7.5, 1000 mM NaCl, 0.25 mM TCEP, before the retained protein was eluted by application of the lysis buffer supplemented with 20 mM glutathione. […]
(§3) In vitro fluorescence polarisation
Fluorescein-labelled peptides corresponding to amino acids 1253-1267 or 1470-1483 of SLX4 incorporating pT1260 or pT1476 respectively, were incubated at a concentration of 100 nM at room temperature with increasing concentrations of TOPBP1 WT or mutant BRCT module variants[26] in 25 mM HEPES pH 7.5, 150 mM NaCl, 1 mM EDTA, 0.25 mM TCEP, 0.002% (v/v) Tween 20 in a black 96-well polypropylene plate. […] Fluorescence polarisation was measured in a CLARIOstar multimode microplate reader. Binding curves were calculated assuming a single binding site with non-specific binding component, using Graphpad Prism10.2.3 (GraphPad Prism, RRID: SCR_002798). […]

TOPBP1 BRCT 4-5 = test: Fluorescence polarisation, TOPBP1 BRCT 4-5; type: binding, human; details: peptide 100 nM, pH 7.5
Description: as §3
(§4) Fluorescein-labelled peptides corresponding to amino acids 1253-1267 or 1470-1483 of SLX4 incorporating pT1260 or pT1476 respectively, were incubated at a concentration of 100 nM at room temperature with increasing concentrations of TOPBP1 WT or mutant BRCT module variants[26] in 25 mM HEPES pH 7.5, 150 mM NaCl, 1 mM EDTA, 0.25 mM TCEP, 0.002% (v/v) Tween 20 in a black 96-well polypropylene plate. Additional experiments performed with dephosphorylated peptide were achieved though incubation with Lambda phosphatase supplemented with 1 mM MnCl2 to remove the phosphorylation on the peptide. Fluorescence polarisation was measured in a CLARIOstar multimode microplate reader. Binding curves were calculated assuming a single binding site with non-specific binding component, using Graphpad Prism10.2.3 (GraphPad Prism, RRID: SCR_002798). Binding affinities are presented as calculated values alongside the 95% CI values. The presented graphs represent data plotted with the non-specific binding component subtracted.

TOPBP1 BRCT 7-8 = test: Fluorescence polarisation, TOPBP1 BRCT 7-8; type: binding, human; details: peptide 100 nM, pH 7.5
Description: as §3, §4

T1 sequence (Q92547 1-290): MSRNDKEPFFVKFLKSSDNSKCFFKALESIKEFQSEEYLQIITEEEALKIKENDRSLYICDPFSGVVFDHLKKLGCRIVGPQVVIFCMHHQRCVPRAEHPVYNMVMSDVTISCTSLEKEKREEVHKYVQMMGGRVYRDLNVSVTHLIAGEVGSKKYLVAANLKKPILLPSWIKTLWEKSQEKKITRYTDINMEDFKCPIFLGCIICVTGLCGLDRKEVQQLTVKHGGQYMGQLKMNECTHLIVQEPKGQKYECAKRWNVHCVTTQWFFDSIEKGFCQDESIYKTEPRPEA

O=C(O)Cc1c[nH]c2ccccc12 [IAA, Indole-3-acetic acid]
MUS81 foci formation in prometaphase after acute TOPBP1 degradation ([1]; 500 µM IAA, 2 h, 40 ng/ml nocodazole, three independent experiments): near total abolishment of MUS81 foci formation in prometaphase | anaphase abnormalities after acute TOPBP1 degradation ([1]; IAA-induced degradation of TOPBP1 in G2/M, release into mitosis): marked increase in anaphase abnormalities

Cc1cccc(N(C)C(=O)[C@@H]2[C@H](O)CCN2c2nc(C)cc(C(F)(F)F)c2C#N)c1 [Polθi]
micronuclei formation, WT cells (RPE1 p53-/- FRT/TR cells): increase in micronuclei formation | proliferation, DLD1 BRCA2-/- cells depleted of SLX4 (DLD1 BRCA2-/- cells): broadly similar loss of proliferative capacity compared to the single depletion of CIP2A alone

C[C@@]1(CO)[C@H](O)CC[C@@]2(C)[C@H]1CC[C@H]1C[C@@H]3C[C@@]12CC[C@]3(O)CO [aphidicolin]
CIP2A–γH2AX colocalising foci in mitosis (RPE1 p53-/- cells; 400 nM aphidicolin 18 h, nocodazole 60 ng/ml 2 h, RPE1 p53-/- FRT/TR WT, three experiments): striking increase in CIP2A–γH2AX colocalising foci in mitosis | RAD9 TOPBP1 colocalising foci (RPE1 p53-/- cells; 400 nM aphidicolin 18 h, nocodazole 60 ng/ml 2 h, RPE1 p53-/- FRT/TR, two experiments (peer review file Fig. R1B)): increase in response to aphidicolin treatment | WT SLX4 recruitment to prometaphase chromatin, colocalised with CIP2A (RPE1 p53-/- cells; 400 nM aphidicolin 18 h, nocodazole 60 ng/ml 2 h, RPE1 p53-/- SLX4-/- + eGFP-SLX4 WT, three independent experiments): recruited to prometaphase chromatin in response to replicative stress induced by aphidicolin and colocalised with CIP2A | colocalisation between CIP2A and FANCD2 foci on mitotic chromatin (RPE1 p53-/- cells; 400 nM aphidicolin 18 h, nocodazole 60 ng/ml 2 h, RPE1 p53-/- WT, three experiments): detected colocalisation between CIP2A and FANCD2 foci on mitotic chromatin | TOPBP1, SLX4, and MUS81 foci during interphase (RPE1 p53-/- cells; RPE1 cells treated with aphidicolin): elevated formation of TOPBP1, SLX4, and MUS81 foci during interphase | mitotic colocalisation of SLX4, MUS81 or ERCC1 with TOPBP1 in prometaphase (RPE1 p53-/- cells; RPE1 cells, aphidicolin): elevated mitotic colocalisation of SLX4, MUS81 or ERCC1 with TOPBP1 in prometaphase | colocalisation between γH2AX and MUS81 (RPE1 p53-/- cells; RPE1 p53-/- cells treated with aphidicolin): The same observation was made for colocalisation between γH2AX and MUS81 | colocalising γH2AX and SLX4 foci (RPE1 p53-/- cells; aphidicolin treated RPE1 p53-/- cells): significant increase in colocalising γH2AX and SLX4 foci | MDC1 foci formation in mitosis (RPE1 p53-/- cells; aphidicolin-treated RPE1 cells compared to control): elevated MDC1 foci formation in mitosis

‘Flu’-GYGSPGLLDT(pT)PIRGSCT [SLX4 pT1476, Fluorescein-labelled peptide corresponding to amino acids 1470-1483 of SLX4 incorporating pT1476]
interaction with TOPBP1 BRCTs 0-1-2 (TOPBP1 BRCT 0-1-2 WT): did not bind | interaction with TOPBP1 BRCTs 4-5 (TOPBP1 BRCT 4-5): no interaction was detected | interaction with TOPBP1 BRCTs 7-8 (TOPBP1 BRCT 7-8): no interaction was detected
